We go through 1 compound from US20140343014A1, “COMBINATION OF A CERTAIN DPP-4 INHIBITOR AND VOGLIBOSE” (BOEHRINGER INGELHEIM INTERNATIONAL GMBH, priority 2013, published 2014).

Each structure is given as a SMILES string. “Also recorded” adds a separate entry of the source.

This data set in a line: Pharmacokinetics of BI 1356 in patients with type 2 diabetes, multiple oral doses once daily for 12 days. The following applies: therapeutic oral dose levels; listed as BI 1356.

For `CC#CCn1c(N2CCC[C@@H](N)C2)nc2c1c(=O)n(Cc1nc(C)c3ccccc3n1)c(=O)n2C` [linagliptin], the route of excretion entry is “mainly excreted via the liver; also recorded: primarily excreted unchanged via the bile”.
